Bridge positions count the residues as written; N and C are the ends. Square brackets hold non-standard residues; d marks the D form. Peptide text beside a SMILES is read from it. ξ: configuration not given here. Trp(1-Me) = Cn1cc(C[C@H](N)C(=O)O)c2ccccc21; 2Nal = N[C@@H](Cc1ccc2ccccc2c1)C(=O)O; ξThr(3R) = C[C@@H](O)C(N)C(=O)O; ξH = NC(Cc1c[nH]cn1)C(=O)O; Thp = NC1(C(=O)O)CCOCC1; ξD = NC(CC(=O)O)C(=O)O; ξOrn = NCCCC(N)C(=O)O; ξK = NCCCCC(N)C(=O)O
Biological target: Interleukin-23 subunit alpha/receptor (UniProt Q5VWK5)
Assay: ELISA assay for specific human IL-23R inhibitors
Procedure: A 384-well plate was coated with 50 µl/well of human IL-23 at a final concentration of […] and incubated overnight at 4°C. The wells were washed 3 times with […] wash buffer and blocked with […] blocking buffer for 60 minutes at room temperature and washed again. 20 µl of serially diluted test peptides was added to each well and subsequently 20 µl of recombinant human IL-23R-Fc chimera at final concentration of […]. The plate was incubated for 60 minutes at room temperature. After the wells were washed, bound IL-23R-Fc was detected with goat anti-hu- IgG 1 -HRP antibody. Signals were visualized with QuantaBlu Fluorogenic Peroxidase Substrate.

Sequence of Interleukin-23 subunit alpha/receptor (Q9NPF7 whole entry): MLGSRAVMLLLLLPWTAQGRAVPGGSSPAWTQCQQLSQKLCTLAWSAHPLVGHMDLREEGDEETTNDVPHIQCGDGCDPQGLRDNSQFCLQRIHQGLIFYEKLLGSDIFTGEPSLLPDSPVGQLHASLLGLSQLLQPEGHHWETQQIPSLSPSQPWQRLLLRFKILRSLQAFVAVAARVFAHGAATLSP
Sequence of Interleukin-23 subunit alpha/receptor (Q5VWK5 whole entry): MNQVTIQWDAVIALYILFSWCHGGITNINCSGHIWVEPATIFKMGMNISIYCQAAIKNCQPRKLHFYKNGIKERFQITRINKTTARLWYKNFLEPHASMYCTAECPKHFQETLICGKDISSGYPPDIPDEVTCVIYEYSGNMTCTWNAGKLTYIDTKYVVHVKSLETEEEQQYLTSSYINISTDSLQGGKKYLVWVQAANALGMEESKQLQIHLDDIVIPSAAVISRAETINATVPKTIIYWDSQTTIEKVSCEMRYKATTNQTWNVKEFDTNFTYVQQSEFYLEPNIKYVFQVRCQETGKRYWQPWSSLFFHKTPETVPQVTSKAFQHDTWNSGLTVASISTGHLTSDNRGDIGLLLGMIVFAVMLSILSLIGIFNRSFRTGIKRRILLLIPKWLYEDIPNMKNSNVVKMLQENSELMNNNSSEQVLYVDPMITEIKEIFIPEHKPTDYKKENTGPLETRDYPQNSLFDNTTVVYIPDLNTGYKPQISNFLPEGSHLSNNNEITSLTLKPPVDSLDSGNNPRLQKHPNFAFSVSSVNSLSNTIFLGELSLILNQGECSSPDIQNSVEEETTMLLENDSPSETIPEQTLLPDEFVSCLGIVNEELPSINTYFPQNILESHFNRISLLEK

**Q.** With `COc1ccc(C[C@@H]2NC(=O)[C@H](CCCNC(=N)N)NC(=O)[C@H](CCC(N)=O)NC(=O)[C@H](Cc3c[nH]c4ccccc34)NC(=O)[C@H]([C@@H](C)O)NC(=O)[C@H](CC(N)=O)NC(=O)[C@H](NC(C)=O)CCCCNC(=O)C[C@@H](C(=O)N[C@@H](CC(N)=O)C(=O)N[C@@H](CC(N)=O)C(=O)O)NC(=O)[C@H](CCCCNC(C)=O)NC(=O)[C@H](Cc3cccc4ccccc34)NC2=O)cc1` [WO2025051920, Example 17] as the molecule, how does the IC50 read?
**A.** Its IC50 is 7.87 nM.

**Q.** Which IC50 does the source give for `COc1ccc(C[C@@H]2NC(=O)[C@H](CCCNC(=N)N)NC(=O)[C@H](CCC(N)=O)NC(=O)[C@H](Cc3c[nH]c4ccccc34)NC(=O)C(Cc3c[nH]cn3)NC(=O)[C@H](CC(N)=O)NC(=O)C(NC(C)=O)CCCCNC(=O)CC(C(=O)N[C@@H](CC(N)=O)C(=O)N[C@@H](CC(N)=O)C(=O)O)NC(=O)C3(CCOCC3)NC(=O)[C@H](Cc3ccc4ccccc4c3)NC2=O)cc1` (stereo not given in full) [WO2025051920, Example 42] (Ac-[ξK]N[ξH]WQRY(Me)[2Nal][Thp][ξD]NN-OH; lactam 1-10) here?
**A.** The IC50 was 18.1 nM.

**Q.** `COc1ccc(C[C@@H]2NC(=O)[C@H](C)NC(=O)[C@H](CCC(N)=O)NC(=O)[C@H](Cc3c[nH]c4ccccc34)NC(=O)[C@H](CCCNC(=N)N)NC(=O)[C@H](CC(N)=O)NC(=O)[C@H](NC(C)=O)CCCCNC(=O)C[C@@H](C(=O)N[C@@H](CC(N)=O)C(=O)N[C@@H](CC(N)=O)C(=O)O)NC(=O)C(C)(C)NC(=O)[C@H](Cc3ccc4ccccc4c3)NC2=O)cc1` [WO2025051920, Example 46] was tested. Which IC50 did it give?
**A.** The IC50 was 1.38 nM.

**Q.** How did the IC50 turn out when `COc1ccc(C[C@@H]2NC(=O)[C@H](CCCNC(=N)N)NC(=O)[C@H](CCC(N)=O)NC(=O)[C@H](Cc3c[nH]c4ccccc34)NC(=O)[C@H]([C@@H](C)O)NC(=O)[C@H](CC(N)=O)NC(=O)[C@H](NC(C)=O)CC(=O)NCCC[C@@H](C(=O)N[C@@H](CC(N)=O)C(=O)N[C@@H](CC(N)=O)C(=O)O)NC(=O)C(C)(C)NC(=O)[C@H](Cc3ccc4ccccc4c3)NC2=O)cc1` [WO2025051920, Example 13] was run?
**A.** Its IC50 is 6.24 nM.

**Q.** Which IC50 does the source give for `CC(=O)N[C@@H]1CCCCNC(=O)C[C@@H](C(=O)N[C@@H](CC(N)=O)C(=O)N[C@@H](CC(N)=O)C(=O)O)NC(=O)C(C)(C)NC(=O)[C@H](Cc2cccc3ccccc23)NC(=O)[C@H](Cc2ccc(O)cc2)NC(=O)[C@H](CCCNC(=N)N)NC(=O)[C@H](CCC(N)=O)NC(=O)[C@H](Cc2c[nH]c3ccccc23)NC(=O)[C@H]([C@@H](C)O)NC(=O)[C@H](CC(N)=O)NC1=O` [WO2025051920, Example 14] here?
**A.** Its IC50 is 5.42 nM.

**Q.** With `COc1ccc(C[C@@H]2NC(=O)[C@H](CCCNC(=N)N)NC(=O)[C@H](CCC(N)=O)NC(=O)[C@H](Cc3cn(C)c4ccccc34)NC(=O)[C@H]([C@@H](C)O)NC(=O)[C@H](CC(N)=O)NC(=O)[C@H](NC(C)=O)CCCCNC(=O)C[C@@H](C(=O)N[C@@H](CC(N)=O)C(=O)N[C@@H](CC(N)=O)C(=O)O)NC(=O)[C@@H](Cc3cscn3)NC(=O)[C@H](Cc3ccc4ccccc4c3)NC2=O)cc1` [WO2025051920, Example 25] as the molecule, how does the IC50 read?
**A.** The IC50 was 9.61 nM.

**Q.** For `CC(=O)N[C@@H]1CCCCNC(=O)C[C@@H](C(=O)N[C@@H](CC(N)=O)C(=O)N[C@@H](CC(N)=O)C(=O)O)NC(=O)C(C)(C)NC(=O)[C@H](Cc2ccc3ccccc3c2)NC(=O)[C@H](Cc2ccc(O)cc2)NC(=O)[C@H](CCCNC(=N)N)NC(=O)[C@H](CCC(N)=O)NC(=O)[C@H](Cc2c[nH]c3ccccc23)NC(=O)[C@H]([C@@H](C)O)NC(=O)[C@H](CC(N)=O)NC1=O` [WO2025051920, Example 4], which IC50 is on record?
**A.** Its IC50 is 1.59 nM.

**Q.** With `COc1ccc(C[C@@H]2NC(=O)[C@H](C)NC(=O)[C@H](CCC(N)=O)NC(=O)[C@H](Cc3c[nH]c4ccccc34)NC(=O)[C@H]([C@@H](C)O)NC(=O)[C@H](CC(N)=O)NC(=O)[C@H](NC(C)=O)CCCCNC(=O)C[C@@H](C(=O)N[C@@H](CC(N)=O)C(=O)N[C@@H](CC(N)=O)C(=O)O)NC(=O)[C@H](CCCNC(=N)N)NC(=O)[C@H](Cc3ccc4ccccc4c3)NC2=O)cc1` [WO2025051920, Example 47] as the molecule, how does the IC50 read?
**A.** The IC50 was 1.34 nM.

**Q.** With `COc1ccc(C[C@@H]2NC(=O)[C@H](C)NC(=O)[C@H](CCC(N)=O)NC(=O)[C@H](Cc3c[nH]c4ccccc34)NC(=O)[C@H]([C@@H](C)O)NC(=O)[C@H](CC(N)=O)NC(=O)[C@H](NC(C)=O)CCCCNC(=O)C[C@@H](C(=O)N[C@@H](CC(N)=O)C(=O)N[C@@H](CC(N)=O)C(N)=O)NC(=O)C3(CCOCC3)NC(=O)[C@H](Cc3ccc4ccccc4c3)NC2=O)cc1` [WO2025051920, Example 51] (Ac-[dK]NTWQAY(Me)[2Nal][Thp]DNN-NH2; lactam 1-10) as the molecule, how does the IC50 read?
**A.** Its IC50 is 0.78 nM.

**Q.** For `COc1ccc(C[C@@H]2NC(=O)C(C)(C)NC(=O)[C@H](CCC(N)=O)NC(=O)[C@H](Cc3c[nH]c4ccccc34)NC(=O)[C@H]([C@@H](C)O)NC(=O)[C@H](CC(N)=O)NC(=O)[C@H](NC(C)=O)CCCCNC(=O)C[C@@H](C(=O)N[C@@H](CC(N)=O)C(=O)N[C@@H](CC(N)=O)C(=O)O)NC(=O)C(C)(C)NC(=O)[C@H](Cc3cccc4ccccc34)NC2=O)cc1` [WO2025051920, Example 21], which IC50 is on record?
**A.** Its IC50 is 16.9 nM.

**Q.** Which IC50 does the source give for `COc1ccc(C[C@@H]2NC(=O)[C@H](CCCNC(=N)N)NC(=O)[C@H](CCC(N)=O)NC(=O)[C@H](Cc3c[nH]c4ccccc34)NC(=O)[C@H]([C@@H](C)O)NC(=O)[C@H](CC(N)=O)NC(=O)[C@H](NC(C)=O)CC(=O)NCCCC[C@@H](C(=O)N[C@@H](CC(N)=O)C(=O)N[C@@H](CC(N)=O)C(=O)O)NC(=O)C(C)(C)NC(=O)[C@H](Cc3ccc4ccccc4c3)NC2=O)cc1` [WO2025051920, Example 12] here?
**A.** Its IC50 is 14.9 nM.

**Q.** Which IC50 does the source give for `COc1ccc(C[C@@H]2NC(=O)[C@H](CCCNC(=N)N)NC(=O)[C@H](CCC(N)=O)NC(=O)[C@H](Cc3cn(C)c4ccccc34)NC(=O)[C@H]([C@@H](C)O)NC(=O)[C@H](CC(N)=O)NC(=O)[C@@H](NC(C)=O)CC(=O)NCCCC(C(=O)N[C@@H](CC(N)=O)C(=O)N[C@@H](CC(N)=O)C(=O)O)NC(=O)[C@H](CC(C)C)NC(=O)[C@H](Cc3ccc4ccccc4c3)NC2=O)cc1` (stereo not given in full) [WO2025051920, Example 37] (Ac-DNT[Trp(1-Me)]QRY(Me)[2Nal]L[ξOrn]NN-OH; lactam 1-10) here?
**A.** The IC50 was 3.57 nM.

**Q.** `COc1ccc(C[C@@H]2NC(=O)[C@H](CCCNC(=N)N)NC(=O)[C@H](CCC(N)=O)NC(=O)[C@H](Cc3c[nH]c4ccccc34)NC(=O)[C@H]([C@@H](C)O)NC(=O)[C@H](CC(N)=O)NC(=O)[C@H](NC(C)=O)CC(=O)NCCCC[C@@H](C(=O)N[C@@H](CC(N)=O)C(=O)N[C@@H](CC(N)=O)C(=O)O)NC(=O)C(C)(C)NC(=O)[C@H](Cc3cccc4ccccc34)NC2=O)cc1` [WO2025051920, Example 11] was tested. Which IC50 did it give?
**A.** The IC50 was 18.9 nM.

**Q.** How did the IC50 turn out when `COc1ccc(C[C@@H]2NC(=O)[C@H](CCCNC(=N)N)NC(=O)[C@H](CCC(N)=O)NC(=O)[C@H](Cc3c[nH]c4ccccc34)NC(=O)C([C@@H](C)O)NC(=O)[C@H](CC(N)=O)NC(=O)C(NC(C)=O)CCCCNC(=O)CC(C(=O)N[C@@H](CC(N)=O)C(=O)N[C@@H](CC(N)=O)C(=O)O)NC(=O)C3(CCOCC3)NC(=O)[C@H](Cc3ccc4ccccc4c3)NC2=O)cc1` (stereo partly drawn) [WO2025051920, Example 41] (Ac-[ξK]N[ξThr(3R)]WQRY(Me)[2Nal][Thp][ξD]NN-OH; lactam 1-10) was run?
**A.** Its IC50 is 1.47 nM.

**Q.** How did the IC50 turn out when `COc1ccc(C[C@@H]2NC(=O)[C@H](CCCNC(=N)N)NC(=O)[C@H](CCC(N)=O)NC(=O)[C@H](Cc3c[nH]c4ccccc34)NC(=O)[C@H]([C@@H](C)O)NC(=O)[C@H](CC(N)=O)NC(=O)[C@H](NC(C)=O)CCCCNC(=O)C[C@@H](C(=O)N[C@@H](CC(N)=O)C(=O)N[C@@H](CC(N)=O)C(=O)O)NC(=O)[C@H](CCC(N)=O)NC(=O)[C@H](Cc3cccc4ccccc34)NC2=O)cc1` [WO2025051920, Example 19] was run?
**A.** The IC50 was 15.6 nM.

**Q.** For `COc1ccc(C[C@@H]2NC(=O)[C@H](C)NC(=O)[C@H](CCC(N)=O)NC(=O)[C@H](Cc3c[nH]c4ccccc34)NC(=O)[C@H]([C@@H](C)O)NC(=O)[C@H](CC(N)=O)NC(=O)[C@H](NC(C)=O)CCCCNC(=O)C[C@@H](C(=O)N[C@@H](CC(N)=O)C(=O)N[C@@H](CC(N)=O)C(=O)O)NC(=O)C(C)(C)NC(=O)[C@H](Cc3cccc4ccccc34)NC2=O)cc1` [WO2025051920, Example 8], which IC50 is on record?
**A.** Its IC50 is 2.74 nM.

**Q.** Which IC50 does the source give for `COc1ccc(C[C@@H]2NC(=O)[C@H](CCNC(=N)N)NC(=O)[C@H](CCC(N)=O)NC(=O)[C@H](Cc3c[nH]c4ccccc34)NC(=O)C([C@@H](C)O)NC(=O)[C@H](CC(N)=O)NC(=O)C(N)CCCCCNC(=O)CC[C@H](C(=O)N[C@@H](CC(N)=O)C(=O)N[C@@H](CC(N)=O)C(=O)O)NC(=O)C(C)(C)NC(=O)[C@H](Cc3ccc4ccccc4c3)NC2=O)cc1` (stereo not given in full) [WO2025051920, Example 40] here?
**A.** Its IC50 is 3.11 nM.

**Q.** With `COc1ccc(C[C@@H]2NC(=O)[C@H](CCCNC(=N)N)NC(=O)[C@H](CCC(N)=O)NC(=O)[C@H](Cc3c[nH]c4ccccc34)NC(=O)[C@H]([C@@H](C)O)NC(=O)[C@H](CC(N)=O)NC(=O)[C@H](NC(C)=O)CCCCNC(=O)C[C@@H](C(=O)N[C@@H](CC(N)=O)C(=O)N[C@@H](CC(N)=O)C(=O)O)NC(=O)[C@H](CCCCN)NC(=O)[C@H](Cc3ccc4ccccc4c3)NC2=O)cc1` [WO2025051920, Example 28] as the molecule, how does the IC50 read?
**A.** The IC50 was 9.03 nM.

**Q.** `COc1ccc(C[C@@H]2NC(=O)[C@H](CCCNC(=N)N)NC(=O)[C@H](CCC(N)=O)NC(=O)[C@H](Cc3c[nH]c4ccccc34)NC(=O)[C@H]([C@@H](C)O)NC(=O)[C@H](CC(N)=O)NC(=O)[C@H](NC(C)=O)CCCCNC(=O)C[C@@H](C(=O)N[C@@H](CC(N)=O)C(=O)N[C@@H](CC(N)=O)C(=O)O)NC(=O)[C@H](CCC(N)=O)NC(=O)[C@H](Cc3ccc4ccccc4c3)NC2=O)cc1` [WO2025051920, Example 30] was tested. Which IC50 did it give?
**A.** Its IC50 is 9.64 nM.

**Q.** With `COc1ccc(C[C@@H]2NC(=O)[C@H](C)NC(=O)[C@H](CCC(N)=O)NC(=O)[C@H](Cc3c[nH]c4ccccc34)NC(=O)[C@H]([C@@H](C)O)NC(=O)[C@H](CC(N)=O)NC(=O)[C@H](NC(C)=O)CCCCNC(=O)C[C@@H](C(=O)N[C@@H](CC(N)=O)C(=O)N[C@@H](C)C(=O)O)NC(=O)C(C)(C)NC(=O)[C@H](Cc3ccc4ccccc4c3)NC2=O)cc1` [WO2025051920, Example 48] as the molecule, how does the IC50 read?
**A.** The IC50 was 2.06 nM.

From BindingDB's records for patent WO2025051920 (Sanofi-Aventis Deutschland, 2025)
